Patent publication US9101136B2, “Synergistic herbicide/fungicide composition containing certain pyridine carboxylic acids and certain fungicides” (Dow AgroSciences LLC, priority 2010, dated 2015)
Where two headings read alike, the source gives them in different places.

What was measured:
Assay type in all cases: in vivo
[1] = tested on: wild pansy (Viola tricolor L; VIOTR); test: Postemergence herbicidal activity of mixtures on wild pansy
Method: (§1) Seeds of the desired test plant species were planted in Sun Gro MetroMix 306 planting mixture, which typically has a pH of 6.0 to 6.8 and an organic matter content of about 30 percent, in plastic pots with a surface area of 103.2 square centimeters (cm^2). When required to ensure good germination and healthy plants, a fungicide treatment and/or other chemical or physical treatment was applied. The plants were grown for 7-36 days (d) in a greenhouse with an approximate 14-hour (h) photoperiod which was maintained at about 18° C. during the day and 17° C. during the night. Nutrients and water were added on a regular basis and supplemental lighting was provided with overhead metal halide 1000-Watt lamps as necessary. The plants were employed for testing when they reached the second or third true leaf stage.
(§2) Treatments consisted of a cereal fungicide compound (as listed in Tables 1 through 34) and the cereal herbicide, 4-amino-3-chloro-6-(4-chloro-2-fluoro-3-methoxyphenyl)pyridine-2-carboxylic acid, alone and in combination. Weighed amounts of acid, esters (methyl) or salts (triethylammonium, TEA) of 4-amino-3-chloro-6-(4-chloro-2-fluoro-3-methoxyphenyl)pyridine-2-carboxylic acid (Compound I) were placed in 25 milliliter (mL) glass vials and dissolved in a volume of 97:3 volume-to-volume (v/v) acetone/dimethyl sulfoxide (DMSO) to obtain 4.5 milligrams active ingredient per milliliter (mg ai/mL) concentrated solutions. […] The concentrated solutions of Compound I were diluted to 1.5 mg ai/mL with the addition of 2 volumes of an aqueous mixture containing acetone, water, isopropyl alcohol, DMSO, Agri-dex crop oil concentrate, and Triton® X-77 surfactant in a 64.7:26.0:6.7:2.0:0.7:0.01 v/v ratio. A dilution solution was prepared by mixing 1 volume of 97:3 v/v acetone/DMSO and 2 volumes of an aqueous mixture containing acetone, water, isopropyl alcohol, DMSO, Agri-dex crop oil concentrate, and Triton® X-77 surfactant in a 64.7:26.0:6.7:2.0:0.7:0.01 v/v ratio. Compound requirements are based upon a 12 mL application volume at a rate of 187 liters per hectare (L/ha). The concentrated solutions of the cereal fungicides were prepared following the same procedure. Weighed amounts of fungicide were placed in 25 mL glass vials and dissolved in a volume of 97:3 v/v acetone/DMSO to obtain concentrated fungicide solutions. The concentrated solutions of the safener were prepared following the same procedure. Weighed amounts of safener were placed in 25 mL glass vials and dissolved in a volume of 97:3 v/v acetone/DMSO to obtain concentrated safener solutions.
(§3) Spray solutions of the cereal herbicide and the fungicidal compound mixtures were prepared by adding the concentrated solutions to the appropriate amount of dilution solution to form 12 mL spray solution with active ingredients in combinations. Spray solutions of the cereal herbicide, herbicide safener and the fungicidal compound mixtures were prepared by adding the concentrated solutions to the appropriate amount of dilution solution to form 12 mL spray solution with active ingredients in combinations.
(§4) Formulated compounds were applied to the plant material with an overhead Mandel track sprayer equipped with 8002E nozzles calibrated to deliver 187 L/ha over an application area of 0.503 square meters (m^2) at a spray height of 18 inches […] above average plant canopy. Control plants were sprayed in the same manner with the solvent blank.
(§5) The treated plants and control plants were placed in a greenhouse as described above and watered by sub-irrigation to prevent wash-off of the test compounds. After 20-22 d, the condition of the test plants as compared with that of the control plants was determined visually and scored on a scale of 0 to 100 percent where 0 corresponds to no injury and 100 corresponds to complete kill. […]

[2] = tested on: redroot pigweed (Amaranthus retroflexus L; AMARE); test: Postemergence herbicidal activity of mixtures on redroot pigweed; conditions: for AMARE Ob (observed control): alone
Method: as §1, §2
(§6) Spray solutions of the cereal herbicide and the fungicidal compound mixtures were prepared by adding the concentrated solutions to the appropriate amount of dilution solution to form 12 mL spray solution with active ingredients in combinations. Spray solutions of the cereal herbicide, herbicide safener and the fungicidal compound mixtures were prepared by adding the concentrated solutions to the appropriate amount of dilution solution to form 12 mL spray solution with active ingredients in combinations. […]
as §5

[3] = tested on: lamb's-quarter (Chenopodium album L; CHEAL); test: Postemergence herbicidal activity of mixtures on lamb's-quarter; conditions: for CHEAL Ob (observed control): alone
Method: as §1
as §2, with “The concentrated solutions of the safener were prepared following the same procedure. Weighed amounts of safener were placed in 25 mL glass vials and dissolved in a volume of 97:3 v/v acetone/DMSO to obtain concentrated safener solutions.” left out
as §5

[4] = tested on: Canada thistle (Cirsium arvense L; CIRAR); test: Postemergence herbicidal activity of mixtures on Canada thistle; conditions: for CIRAR Ob (observed control): alone
Method: as §1, §2, §6, §5

[5] = tested on: chickweed (Stellaria media L; STEME); test: Postemergence herbicidal activity of mixtures on chickweed; conditions: for STEME Ob (observed control): alone
Method: as §1
Treatments consisted of a cereal fungicide compound (as listed in Tables 1 through 34) and the cereal herbicide, 4-amino-3-chloro-6-(4-chloro-2-fluoro-3-methoxyphenyl)pyridine-2-carboxylic acid, alone and in combination. Weighed amounts of acid, esters (methyl) or salts (triethylammonium, TEA) of 4-amino-3-chloro-6-(4-chloro-2-fluoro-3-methoxyphenyl)pyridine-2-carboxylic acid (Compound I) were placed in 25 milliliter (mL) glass vials and dissolved in a volume of 97:3 volume-to-volume (v/v) acetone/dimethyl sulfoxide (DMSO) to obtain 4.5 milligrams active ingredient per milliliter (mg ai/mL) concentrated solutions. […] The concentrated solutions of Compound I were diluted to 1.5 mg ai/mL with the addition of 2 volumes of an aqueous mixture containing acetone, water, isopropyl alcohol, DMSO, Agri-dex crop oil concentrate, and Triton® X-77 surfactant in a 64.7:26.0:6.7:2.0:0.7:0.01 v/v ratio. […]
as §5

[6] = tested on: kochia (Kochia scoparia L; KCHSC); test: Postemergence herbicidal activity of mixtures on kochia; parameters: KCHSC Ob: unit: %; conditions: for KCHSC Ob (observed control): alone
Method: as §1, §2, §3, §4, §5

[7] = tested on: scented mayweed (Matricaria chamomila L; MATCH); test: Postemergence herbicidal activity of mixtures on scented mayweed; conditions: for MATCH Ob (observed control): alone
Method: as §1, §2, §3, §4, §5

[8] = tested on: Russian thistle (Salsola iberica L; SASKR); test: Postemergence herbicidal activity of mixtures on Russian thistle; conditions: for SASKR Ob (observed control): alone
Method: as §1, §2, §3, §4, §5

[9] = tested on: bird's-eye speedwell (Veronica persica L; VERPE); test: Postemergence herbicidal activity of mixtures on bird's-eye speedwell; conditions: for VERPE Ob (observed control): alone
Method: as §1, §2, §3, §4, §5

Wheat = test: Safening activity of herbicidal compositions on wheat (crop injury); conditions: for TRZAS Ob (observed injury): alone
Method: as §1, §2, §3, §4, §5

Barley = test: Safening activity of herbicidal compositions on barley (crop injury); conditions: for HORVS Ob (observed injury): alone
Method: as §1, §2, §3, §4, §5

CC(Cc1ccc(C(C)(C)C)cc1)CN1CCCCC1 (racemic) [Fenpropidin, (±)-1-[3-[4-(1,1-dimethylethyl)phenyl]-2-methylpropyl]piperidine]
pest or weed control at 562.5 g/ha ([1]; Viola tricolor, post-emergence, fungicide 562.5 g/ha alone, read-out: VIOTR Ob): 0% | AMARE Ob ([2]; fungicide 562.5 g/ha alone): 0% | CHEAL Ob ([3]; fungicide 562.5 g/ha alone): 0% | CIRAR Ob ([4]; fungicide 562.5 g/ha alone): 0%

FC(F)C(F)(F)OCC(Cn1cncn1)c1ccc(Cl)cc1Cl (racemic) [Tetraconazole, (±)-1-[2-(2,4-dichlorophenyl)-3-(1,1,2,2-tetrafluoroethoxy)propyl]-1H-1,2,4-triazole]
pest or weed control at 125 g/ha ([1]; Viola tricolor, post-emergence, alone, 125 g/ha, read-out: VIOTR Ob (observed control)): 0% | AMARE Ob (observed control) ([2]; 125 g/ha): 0% | CHEAL Ob (observed control) ([3]; 125 g/ha): 0% | STEME Ob (observed control) ([5]; 125 g/ha): 0% | CIRAR Ob (observed control) ([4]; 125 g/ha): 0%

CO/C=C(/C(=O)OC)c1ccccc1Oc1cc(Oc2ccccc2C#N)ncn1 [Azoxystrobin, methyl (αE)-2-[[6-(2-cyanophenoxy)-4-pyrimidinyl]oxy]-α-(methoxymethylene)benzeneacetate]
pest or weed control at 62.5 g/ha ([6]; Bassia scoparia, post-emergence, fungicide 62.5 g/ha alone, read-out: KCHSC Ob): 0% | KCHSC Ob ([6]; fungicide 250 g/ha): 0 | pest or weed control at 62.5 g/ha ([7]; Matricaria, post-emergence, fungicide 62.5 g/ha alone, read-out: MATCH Ob): 0% | MATCH Ob ([7]; fungicide 250 g/ha): 0 | pest or weed control at 62.5 g/ha ([8]; Salsola tragus, post-emergence, fungicide 62.5 g/ha alone, read-out: SASKR Ob): 0% | SASKR Ob ([8]; fungicide 250 g/ha): 0 | VERPE Ob ([9]; fungicide 250 g/ha): 0 | pest or weed control at 62.5 g/ha ([1]; Viola tricolor, post-emergence, fungicide 62.5 g/ha alone, read-out: VIOTR Ob): 0% | TRZAS Ob (Wheat; fungicide 250 g/ha): 0 | HORVS Ob (Barley; fungicide 250 g/ha): 0

O=C(O)COc1ccc(Cl)c2cccnc12 [Cloquintocet]
KCHSC Ob ([6]; Cloquintocet 4.4 g/ha): 0 | KCHSC Ob ([6]; Cloquintocet 8.75 g/ha): 0 | MATCH Ob ([7]; Cloquintocet 4.4 g/ha): 0 | MATCH Ob ([7]; Cloquintocet 8.75 g/ha): 0 | SASKR Ob ([8]; Cloquintocet 4.4 g/ha): 0 | SASKR Ob ([8]; Cloquintocet 8.75 g/ha): 0 | VERPE Ob ([9]; Cloquintocet 4.4 g/ha): 0 | VERPE Ob ([9]; Cloquintocet 8.75 g/ha): 0 | VIOTR Ob ([1]; Cloquintocet 4.4 g/ha): 0 | VIOTR Ob ([1]; Cloquintocet 8.75 g/ha): 0 | TRZAS Ob (Wheat; Cloquintocet 4.4 g/ha): 0 | TRZAS Ob (Wheat; Cloquintocet 8.75 g/ha): 0 | HORVS Ob (Barley; Cloquintocet 4.4 g/ha): 0 | HORVS Ob (Barley; Cloquintocet 8.75 g/ha): 0

COc1c(Cl)ccc(-c2nc(C(=O)O)c(Cl)c(N)c2F)c1F [Compound I Acid]
KCHSC Ob ([6]; Compound I Acid 35 g/ha): 98 | MATCH Ob ([7]; Compound I Acid 35 g/ha): 87 | SASKR Ob ([8]; Compound I Acid 35 g/ha): 89 | VERPE Ob ([9]; Compound I Acid 35 g/ha): 72 | VIOTR Ob ([1]; Compound I Acid 35 g/ha): 60 | TRZAS Ob (Wheat; Compound I Acid 35 g/ha): 22 | HORVS Ob (Barley; Compound I Acid 35 g/ha): 15

CC(C)NC(=O)N1CC(=O)N(c2cc(Cl)cc(Cl)c2)C1=O [Iprodione, 3-(3,5-dichlorophenyl)-N-(1-methylethyl)-2,4-dioxo-1-imidazolidine=carboxamide]
pest or weed control at 750 g/ha ([1]; Viola tricolor, post-emergence, fungicide 750 g/ha alone, read-out: VIOTR Ob): 0% | AMARE Ob ([2]; fungicide 750 g/ha alone): 0% | CIRAR Ob ([4]; fungicide 750 g/ha alone): 0%

CO/C=C(/C(=O)OC)c1ccccc1COc1cccc(C(F)(F)F)n1 [Picoxystrobin, methyl (E)-(α)-(methoxymethylene)-2-[[[6-(trifluoromethyl)-2-pyridinyl]oxy]methyl]benzeneacetate]
VIOTR Ob ([1]; fungicide 250 g/ha alone): 0% | AMARE Ob ([2]; fungicide 250 g/ha alone): 0% | CHEAL Ob ([3]; fungicide 250 g/ha alone): 0% | STEME Ob ([5]; fungicide 250 g/ha alone): 0% | CIRAR Ob ([4]; fungicide 250 g/ha alone): 0%

CC(C)(C)C(O)(CCc1ccc(Cl)cc1)Cn1cncn1 (stereo not drawn) [Tebuconazole, α-[2-(4-chlorophenyl)ethyl]-α-(1,1-dimethylethyl)-1H-1,2,4-triazole-1-ethanol]
KCHSC Ob (observed control) ([6]; 31.25 g/ha): 0% | KCHSC Ob (observed control) ([6]; 62.5 g/ha): 0% | KCHSC Ob (observed control) ([6]; 250 g/ha): 0% | KCHSC Ob ([6]; fungicide 250 g/ha): 0 | MATCH Ob (observed control) ([7]; 31.25 g/ha): 0% | MATCH Ob (observed control) ([7]; 62.5 g/ha): 0% | MATCH Ob (observed control) ([7]; 250 g/ha): 0% | MATCH Ob ([7]; fungicide 250 g/ha): 0 | SASKR Ob (observed control) ([8]; 31.25 g/ha): 0% | SASKR Ob (observed control) ([8]; 62.5 g/ha): 0% | SASKR Ob (observed control) ([8]; 250 g/ha): 0% | SASKR Ob ([8]; fungicide 250 g/ha): 0 | VERPE Ob (observed control) ([9]; 31.25 g/ha): 0% | VERPE Ob (observed control) ([9]; 62.5 g/ha): 0% | VERPE Ob (observed control) ([9]; 250 g/ha): 0% | VERPE Ob ([9]; fungicide 250 g/ha): 0 | pest or weed control at 31.25 g/ha ([1]; Viola tricolor, post-emergence, alone, 31.25 g/ha, read-out: VIOTR Ob (observed control)): 0% | pest or weed control at 62.5 g/ha ([1]; Viola tricolor, post-emergence, alone, 62.5 g/ha, read-out: VIOTR Ob (observed control)): 0% | pest or weed control at 250 g/ha ([1]; Viola tricolor, post-emergence, alone, 250 g/ha, read-out: VIOTR Ob (observed control)): 0% | VIOTR Ob ([1]; fungicide 250 g/ha): 0 | TRZAS Ob (observed injury) (Wheat; 62.5 g/ha): 0% | TRZAS Ob (observed injury) (Wheat; 250 g/ha): 0% | TRZAS Ob (Wheat; fungicide 250 g/ha): 0 | HORVS Ob (observed injury) (Barley; 62.5 g/ha): 0% | HORVS Ob (observed injury) (Barley; 250 g/ha): 0% | HORVS Ob (Barley; fungicide 250 g/ha): 0

COC(=O)NC(=S)Nc1ccccc1NC(=S)NC(=O)OC [Thiophanate-methyl, dimethyl[1,2-phenylenebis(iminocarbonothioyl)]bis[carbamate]]
pest or weed control at 750 g/ha ([1]; Viola tricolor, post-emergence, alone, 750 g/ha, read-out: VIOTR Ob (observed control)): 0% | AMARE Ob (observed control) ([2]; 750 g/ha): 0% | CHEAL Ob (observed control) ([3]; 750 g/ha): 0% | STEME Ob (observed control) ([5]; 750 g/ha): 0% | CIRAR Ob (observed control) ([4]; 750 g/ha): 0%
